Measured values from patent EP4775209A1 (Ascentawits Pharmaceuticals, Ltd., priority 2023, dated 2025).
Where two headings read alike, the source gives them in different places.

Assays:
[1] = Phase I solid tumor clinical trial of AST-3424 in China (CTR20191399): safety and tolerability; assay type: in vivo, human; conditions: Day 1 and Day 8 of every 21-day treatment cycle; Chinese subjects
Method: The treatment cycle was 21 days, with administration on Day 1 and Day 8. Dose escalation was conducted across five dose levels: 1.0, 2.0, 4.0, 6.0, and 8.0 mg/m^2. After discussion by the Safety Review Committee (SRC), the MTD and RP2D when administered on Day 1 and Day 8 of every 21-day treatment cycle were confirmed as 6.0 mg/m^2 (a total dose of 12 mg/m^2 per cycle). The safety and tolerability were slightly better in the U.S. subjects than in the Chinese subjects (with a marginally higher MTD/RP2D under the same dosing regimen than those in the Chinese population). The safety profile trends were consistent (most adverse events were mild in severity; the most common adverse events included anemia, decreased platelet count, fatigue, and vomiting). Other safety, PK and efficacy results were generally similar to those in the clinical trials of OBI-3424.

[2] = Phase I clinical trial of AST-3424 in China: blood pharmacokinetics compared with US data; assay type: in vivo, human; conditions: human, Chinese and American patients, printed as 'almost lower than', read-out: concentrations after 8 hours
[3] = test system: human lung cancer (H460-GFP) subcutaneous CDX model; experiment: Human lung cancer CDX efficacy model (QW×2 regimen); assay type: in vivo, nude mice; conditions: QW×2, QW×2, I.V., P<0.01
Method: Images of tumor burden in mice were non-invasively collected twice a week by a Fluor Vivo Model 100 imaging system, and the mean value of tumor area in each group was calculated based on imaging analysis results. […] The data from this experiment are the data for the H460 model in Example 3-1 of the aforementioned Patent Application 2 (see Table 5 and Figure 5 of this application).

[4] = test system: HuPrime® lung cancer LU5173 subcutaneous xenograft model
From the text: (§1) For the experimental procedures and relevant evaluation indicators of the aforementioned solid tumor animal efficacy models, please refer to Examples 7, 8, and 9 in Patent Application 1, namely PCT/US2016/062114, with Publication No. WO2017/087428 (corresponding to Chinese Application CN201680044608.1, with Publication No. CN108290911B), Examples 3 and 4 in Patent Application 2, namely PCT/CN2021/078115, with Publication No. WO2022178821, and Research Literature 1. The aforementioned non-clinical animal efficacy models (PDX) mentioned in the present application are all similar to those in the aforementioned literatures, and the specific operation procedures thereof are not described herein again.
The LU5173 is a HuPrime® xenograft model established from a lung cancer (small cell lung carcinoma) tumor of a patient.
Efficacy was evaluated based on the relative tumor growth inhibition (TGI, %), and safety was evaluated based on animal body weight changes and mortality.

[5] = test system: HuPrime® pancreatic cancer PA2637 subcutaneous xenograft model
From the text: as §1
PA2637 is a HuPrime® xenograft model established from a pancreatic cancer tumor of a patient.
Efficacy was evaluated based on the relative tumor growth inhibition rate (TGI, %), and safety was evaluated based on animal body weight changes and mortality.

[6] = GLP repeated-administration toxicity study (D1+D8/21 Days) in rats; assay type: in vivo, Sprague-Dawley (SD) rats; conditions: intravenous bolus on Days 1, 8, 22, 29
Method: Rats developed test article-related, dose-dependent lesions at the injection sites and the distal ends of the tails. At the 10 mg/kg dose, there were mild and reversible changes in hematology and serum biochemistry parameters.

[7] = GLP repeated-administration toxicity study (D1+D8/21 Days) in monkeys; assay type: in vivo, cynomolgus monkeys
Method: In a GLP repeated-administration toxicity study in cynomolgus monkeys, AS-3424 was intravenously infused to cynomolgus monkeys at doses of 0, 0.1, 0.3, and 0.6 mg/kg over 30 minutes on Days 1, 8, 22, and 29. […] Ultimately, the highest non-severe toxic dose (HNSTD) in monkeys was determined to be 0.6 mg/kg.

[8] = GLP repeated-administration toxicity study (QD×5/21 Days) in monkeys; assay type: in vivo, cynomolgus monkeys; conditions: 5 cycles
Method: In a GLP repeated-administration toxicity study in cynomolgus monkeys, AS-3424 was intravenously infused to cynomolgus monkeys at doses of 0, 0.1, 0.2, or 0.4/0.3 mg/kg over 30 minutes on Days 1-5, Days 22-26, Days 43-47, Days 64-68, and Days 85-89.
During the trials, a decrease in #EOS (absolute eosinophil count), %EOS (% eosinophils), #RET (absolute reticulocyte count), and %RETIC (% reticulocytes) was primarily observed in the ≥0.1 mg/kg dose groups; a decrease in #NEUT, #LYMPH (lymphocyte absolute count), and %LYMPH (% lymphocyte) was also seen in the ≥ 0.2 mg/kg dose groups; and a decrease in WBC (white blood cell), HGB (hemoglobin), and HCT (hematocrit) was also seen in the 0.4/0.3 mg/kg dose group. Among them, the reduction in eosinophils was correlated with the reduction in the percentage of eosinophils in the bone marrow smears at the end of the administration period, and the decrease in lymphocytes was correlated with the reduction of lymphocytes in the thymic cortex under microscopic examination, which were considered to be secondary stress responses. All the above hematological changes were recoverable during the recovery period.

[9] = test system: solid tumors; conditions: 21 patients of 39; cited from earlier work
[10] = cited from earlier work
[11] = Regimen A, 12 mg/m^2 dose level

Structure (SMILES): C[C@H](OP(=O)(N1CC1)N1CC1)c1ccc([N+](=O)[O-])c(Oc2cccc(C(=O)N(C)C)c2)c1 [AST-3424]
- MTD [1]: 6.0 mg/m^2
- RP2D [1]: 6.0 mg/m^2
- concentration at 8 h [2]: < 1 ng/mL
- TGI ([3]; 0.625 mg/kg, 1-week off): 60.2%
- TGI ([3]; 1.25 mg/kg, 1 week off): 67.2%
- TGI ([3]; 2.5 mg/kg, 1 week off): 88%
- tolerability (body weight changes and mortality) ([4]; 1 mg/kg QD×5, 2 cycles, no animal deaths): well tolerated
- TGI (%) ([4]; day 32 after first administration, AST-3424 1 mg/kg QD×5, 16 days off, QD×5 (P < 0.001), ifosfamide 6.0 mg/kg QD×5/week for 2 weeks (p > 0.05)): 78.56%
- mean tumor volume ([4]; day 32 after first administration, AST-3424 1 mg/kg QD×5, 16 days off, QD×5, ifosfamide 6.0 mg/kg QD×5/week for 2 weeks, vehicle 2276.68): 503.91 mm^3
- tumor clearance ([5]; 1 mg/kg QD×5, 2 cycles, 6 mice per group): the tumor in one mouse was cleared
- tolerability (body weight changes and mortality) ([5]; 1 mg/kg QD×5, 2 cycles, no animal deaths, no apparent drug toxicity): well tolerated
- TGI (%) ([5]; Day 36 after first administration, AST-3424 1 mg/kg QD×5, 16 days off, QD×5 (P < 0.001), ifosfamide 60 mg/kg QD×5/week for 2 weeks (no statistical difference)): 80.78%
- mean tumor volume ([5]; Day 36 after first administration, AST-3424 1 mg/kg QD×5, 16 days off, QD×5, ifosfamide 60 mg/kg QD×5/week for 2 weeks, vehicle 977.46): 186.08 mm^3
- NOAEL ([6]; Sprague-Dawley, rat, in vivo, read-out: no-observed-adverse-effect level (NOAEL)): 3 mg/kg
- dose at which 10% of animals showed severe toxic reactions (STD10) [6]: 30 mg/kg
- most prominent toxic reaction ([7]; 0.1, 0.3, 0.6 mg/kg on Days 1, 8, 22, 29, intestinal necrosis/hyperplasia in pathology): diarrhea and vomiting
- highest non-severe toxic dose (HNSTD) ([7]; 30-minute i.v. infusion on Days 1, 8, 22, 29): 0.6 mg/kg
- toxic target organs ([8]; 0.1, 0.2, 0.4/0.3 mg/kg QD×5 per 21 days): duodenum, jejunum, colon, and cecum
- HNSTD ([8]; 30-minute i.v. infusion QD×5 per 21 days): 0.3 mg/kg
- confirmed best response stable disease [9]: 54%
- probability of grade ≥3 TEAEs ([10]; 12 mg/m^2 on Day 1 and Day 8 of 21-day cycle (all 6 patients)): 100%
- probability of grade ≥3 TEAEs ([10]; 12 mg/m^2 only on Day 1 of 21-day cycle (2 out of 6 patients)): 33.3%
- recommended Phase II dose (RP2D) ([10]; 21 days per cycle, administration on Day 1 (once every 3 weeks)): 12 mg/m^2
- dose-limiting toxicity: anemia Grade 3-4 [10, 11]: 5 out of 6
- dose-limiting toxicity: thrombocytopenia Grade 3-4 [10, 11]: 5 out of 6
- maximum tolerated dose (MTD) ([10]; Regimen A: i.v., 21 days per cycle, administration on Day 1 and Day 8): 8 mg/m^2
- nadir of the platelet count ([10]; Regimen A): Day 15 or Day 22
- patients with Grade 3 or higher anemia ([10]; Regimen B, 14 mg/m^2, among 6 patients treated): 3 patients
- MTD ([10]; Regimen B: i.v., 21 days per cycle, administration only on Day 1, highest tested dose 14 mg/m^2): not reached
- patients who experienced treatment-emergent adverse events (TRAEs) ([10]; all 39 patients (32/39)): 82%
- Grade ≥3 TRAEs ([10]; all 39 patients): 49%
- TRAE anemia ([10]; all 39 patients): 64%
- TRAE fatigue ([10]; all 39 patients): 21%
- TRAE nausea ([10]; all 39 patients): 26%
- TRAE thrombocytopenia ([10]; all 39 patients): 51%
- patients who experienced serious TRAEs ([10]; all 39 patients): 3 patients
